Data published in patent US20230000842A1, “METHODS OF TREATING CARTILAGE DISORDERS THROUGH INHIBITION OF CLK AND DYRK” (SAMUMED, LLC, priority 2019, published 2023).

Legend:
[1] = test system: cartilage of ACLT+pMMx rats; assay: Surgery-induced OA model (ACLT+pMMx), cartilage analysis; assay type: in vivo, rat; settings: cartilage at day 35
Experimental: Male Sprague Dawley (SD) rats (250 g±30 g) (Charles River, Wilmington, Mass.) were used for all animal studies. All animals were treatment naïve at the start of the studies. Procedures were performed during the hours of 8 am-5 pm on weekdays in a sterile hood in the vivarium. Rats were housed in individual ventilated cages (≤3 per cage) under the following conditions:
For Nanostring analysis and qPCR: At 10 weeks postnatal age, 32 rats were subjected to severing of the anterior cruciate, medial collateral and medial meniscotibial ligaments (ACLT+pMMx). 8 rats (male, 10 weeks old) were untreated controls (Sham). Each rat was anesthetized with an isoflurane/O2 mixture until the flexor withdrawal reflex was abolished. The surgeon wore a face mask, hair net, lab coat and shoe covers, and gloves that were disinfected with betadine or chlorhexidine. Surgery tools were sterilized with an autoclave or bead sterilizer and disinfected between animals using a bead sterilizer. After being shaved and disinfected with betadine or chlorhexidine solution, the right knee joint was exposed through a medial para-patellar approach. The medical collateral ligament (MCL) was transected with surgical scalpels. The patella was dislocated laterally, and the knee was placed in full flexion followed by anterior cruciate ligament (ACL) transection with surgical scalpels. The medial meniscus (MM) was also partially transected. After surgery, the joint surface was washed with sterile saline solution, and the capsule was sutured using Vicryl 4-0 (Ethicon, Edinburgh, UK) absorbable suture. The skin was closed with 9 mm auto clips (Mikron precision INC, Gardena Calif.). Buprenorphine (0.5 mg/kg) was administered immediately after the surgery and daily for one-week post-surgery. All the surgery, rats were allowed to move freely in plastic cages until their necropsies. […] At the indicated timepoints, animals were sacrificed using Carbon dioxide (CO2). Cartilage was isolated, flash frozen in liquid Nitrogen and stored at −80° C. until processing for RNA extraction.
At the indicated timepoints, animals were sacrificed using Carbon dioxide (CO2). Cartilage was isolated, flash frozen in liquid Nitrogen and stored at −80° C. until processing for protein extraction.

[2] = test system: CLK mediated phosphorylation of SRSF4, 5, 6; assay: Western blot of phospho-SRSF in hMSCs and human chondrocytes; assay type: cell-based; settings: 1 hr, vs DMSO
Experimental: (§1) Cells were plated at 300,000 cells per well in a 6-well plate and following an overnight incubation, treated with DMSO (vehicle control) or indicated compounds and incubated at 37° C. and 5% CO2 for the indicated times. Following treatment, cells were trypsinized and pelleted by centrifugation and washed with PBS. Total protein from the cell pellet was extracted or for fractionation, protein was fractionated into cytoplasmic and nuclear fractions using a Nuclear and Cytoplasmic Extraction Reagents (NE-PER™) kit containing Halt™ protease and phosphatase inhibitors (Thermo Fisher). Protein concentrations were quantified using the Pierce Micro BCA protein assay kit (Thermo Fisher). […] Blots were blocked with non-fat dry milk. Primary antibodies were incubated overnight at 4° C. β-actin and Lamin B1 were used as loading controls (Supplementary Table S2 for primary antibodies). Mouse and rabbit horseradish peroxidase (HRP)-conjugated secondary antibodies were diluted in 5% blocking buffer in TBS-T. Protein-antibody complexes were detected by chemiluminescence using the SuperSignal West Femto Chemiluminescent Substrate (Thermo Fisher) and images were captured with a UVP ChemiDocIt2 camera system (Fisher Scientific, Hampton, N.H.).

[3] = test system: nuclear speckles in hMSCs and chondrocytes; assay: Nuclear speckles assay (phospho-SC35 immunofluorescence); assay type: cell-based, human; settings: 30 nM, 100 nM, 6 hrs, compared to DMSO
From the text: Cells were stained with phospho-SC35 antibody (green) or DAPI nuclear stain (blue).
After approximately 6 hrs, cells were fixed and stained with a phospho-SC35 antibody (Santa Cruz Biotechnology), followed by an Alexa-Fluor 488 secondary antibody (Thermo Fisher) and DAPI (Thermo Fisher). Cells were imaged at 100× magnification using the EVOS FL (Life Technologies, Carlsbad, Calif.).

[4] = test system: NF-κB pathway gene expression in THP1 cells; assay: qRT-PCR of NF-κB pathway components in THP1 cells stimulated with LPS; assay type: cell-based
Experimental: Fold change relative to unstimulated control is shown (n=3, Mean±95% CI, *p<0.05, **p<0.01, ***p<0.001, one-way ANOVA).
Total RNA was isolated using a RNAeasy kit (Qiagen) as per the manufacturer's protocol. cDNA was synthesized using the iScript cDNA Synthesis Kit (Bio-Rad). Quantitative real-time PCR was performed using the CFX384 (Bio-Rad) using gene specific SYBR-green or TaqMan™ primers. Relative gene expression was determined by normalizing to housekeeping genes using the ΔΔCt method. Data was collected from at least 3 replicates per assay.

[5] = test system: SIRT1 (pSer27, pSer47); assay: Western blot of phospho-SIRT1 with IL1-β; assay type: cell-based, human; settings: hMSCs and chondrocytes; in the presence of IL-1β; compared to DMSO
Experimental: as §1

[6] = test system: FOXO1; assay: Western blot and immunofluorescence of FOXO1 with IL1-β; assay type: cell-based, human; settings: hMSCs and chondrocytes; in the presence of IL-1β; compared to DMSO
Experimental: Cells were stained with anti-FOXO1 antibody (red) and DAPI nuclear stain (blue).
as §1

[7] = test system: Wnt pathway gene expression in hMSCs; assay: Nanostring nCounter Wnt Pathways panel in hMSCs; assay type: cell-based, human; settings: >2-fold change, p<0.05, FDR corrected
Experimental: FIGS. 2D and 2E depict gene expression changes of selected genes from FIG. 2C by qRT-PCR (n=3, Mean±95% CI, *p<0.05, **p<0.01, ***p<0.001, one-way ANOVA). […] Downregulation of AXIN2, TCF7, LRP5, BAMBI, NKD1, PAI-1, LRP6, FZD6, FZD7, PITX2, ERBB2, and CTGF gene expression and increased levels of Wnt pathway inhibitors SFRP2 and DACT1 were determined by qPCR.
Fifty nanograms of RNA was hybridized with Tagsets and probe pools from the nCounter® Vantage 3D™ Wnt Pathways Panel (NanoString Technologies) for 16 hrs at 67° C. Hybridized samples were ran on a nCounter® SPRINT Profiler (NanoString Technologies). Nanostring gene counts were normalized by the geometric mean of all housekeeping genes by nSolver (v3.0). P-values from normalized counts were calculated by an independent t-test and adjusted by the false discovery rate (FDR) method (Benjamini & Hochberg) to correct for multiple comparisons using R (v3.4.2). Data was plotted using R (v3.4.2).

[8] = test system: Wnt pathway activity (SW480 colon carcinoma cells stably expressing the Sp5-Luc reporter); assay: Wnt pathway activity screening assay (Sp5-Luc reporter gene assay); settings: Homo sapiens, SW480
[9] = single IA injection 0.1 μg, 0.3 μg, 1 μg one-week post ACLT+pMMx, compared with vehicle

## CC(C)CC(=O)Nc1cncc(-c2ccc3[nH]nc(-c4nc5c(-c6cccc(F)c6)cncc5[nH]4)c3c2)c1 [compound 123]
[1]; ACLT+pMMx rats, Nanostring
  number of Wnt pathway genes with decreased expression: 19 genes
  number of Wnt pathway genes with increased expression: at least 8 genes
[1]; [9]
  CLK2, DYRK1A, SRSF1, SRSF5, and SRSF6 expression: decreased
  phospho-SRSF, SRSF1, AXIN2, TCF7, phospho-SIRT1, phospho-FOXO1, and phospho-STAT3 (Western blot): decreased
[2]
  CLK mediated phosphorylation of SRSF4, 5, 6: dose-dependently inhibited
[3]
  nuclear speckles (spliceosome modulation): enlargement of nuclear speckles
[4]
  LPS-stimulated gene expression of NF-κB components (RELA, RELB): inhibited
  NF-κB inhibitors (NFKBIA, NFKBIB, IKKβ, IKKγ) expression: without effects
  expression of NF-κB pathway genes (NFKB1, NFKB2, RELA, RELB and BCL3): inhibited
[5]
  phosphorylation of SIRT1 (pSer27, pSer47): dose-dependently and more potently inhibited
[6]
  phosphorylation of FOXO1: dose-dependently inhibited
  total FOXO1 protein levels and nuclear localization: increases
[7]
  number of Wnt pathway genes downregulated: 19 genes
  number of Wnt pathway genes upregulated: 9 genes
[8]
  EC50: 3.4 nM
